Test results reported in publication PMC10531337 (International Journal of Molecular Sciences, 2023).

Target: T1, epidermal growth factor receptor (EGFR) (Homo sapiens, UniProt P00533)
T1 construct: extracellular domain
Assay: SPR (Biacore S200, EGFR amine-coupled to CM5 chip, […] model); also BLI (Octet RED96) at […]
Type: binding

T1 sequence (P00533 25-645 limits assumed): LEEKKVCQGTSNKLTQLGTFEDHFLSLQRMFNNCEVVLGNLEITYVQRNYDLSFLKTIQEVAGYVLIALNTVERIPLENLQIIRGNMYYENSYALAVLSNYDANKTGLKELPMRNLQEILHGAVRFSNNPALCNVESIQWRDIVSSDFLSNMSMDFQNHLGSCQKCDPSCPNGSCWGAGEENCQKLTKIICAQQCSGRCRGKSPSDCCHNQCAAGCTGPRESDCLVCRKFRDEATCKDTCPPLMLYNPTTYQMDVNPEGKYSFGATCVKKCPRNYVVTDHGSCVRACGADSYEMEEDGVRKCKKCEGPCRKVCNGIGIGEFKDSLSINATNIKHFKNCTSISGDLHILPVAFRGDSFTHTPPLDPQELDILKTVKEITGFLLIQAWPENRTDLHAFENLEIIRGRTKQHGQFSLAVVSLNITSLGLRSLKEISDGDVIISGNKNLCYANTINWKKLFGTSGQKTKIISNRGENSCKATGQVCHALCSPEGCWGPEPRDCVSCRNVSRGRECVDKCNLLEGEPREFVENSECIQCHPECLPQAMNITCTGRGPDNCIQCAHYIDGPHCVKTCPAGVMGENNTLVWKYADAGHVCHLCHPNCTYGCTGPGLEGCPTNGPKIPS

Kd: 7.14 µM
Compound: O=C(O[C@@H]1Cc2c(O)cc(O)cc2O[C@@H]1c1cc(O)c(O)c(O)c1-c1c([C@H]2Oc3cc(O)cc(O)c3C[C@H]2OC(=O)c2cc(O)c(O)c(O)c2)cc(O)c(O)c1O)c1cc(O)c(O)c(O)c1 [compound 3, theasinensin A]
